Experimental data published in the NIST ThermoML archive (doi:10.1021/je050366x).
“And” between values parts separate entries of the source, which are not always exact repeats. Identical values can stand only once.

Assay: xn = mol fraction of the nth substance listed
Settings: for mass density: 100 kPa, Liquid, Pycnometric method

O=C(O)/C=C\C(=O)O [cis-1,4-butenedioic acid] + O
Ring tensiometer
Settings | surface tension liquid-gas
278.3 K, x1 = 0.012 | 69.9 mN/m
278.7 K, x1 = 0.06 | 64.3 mN/m
279.2 K, x1 = 0.012 | 69.8 mN/m
280.4 K, x1 = 0.06 | 64.4 mN/m
280.5 K, x1 = 0.06 | 64.4 mN/m
283.5 K, x1 = 0.012 | 69.2 mN/m
283.5 K, x1 = 0.06 | 63.7 mN/m
283.7 K, x1 = 0.012 | 69.4 mN/m
284.2 K, x1 = 0.06 | 64 mN/m
284.7 K, x1 = 0.06 | 63.9 mN/m
284.9 K, x1 = 0.06 | 63.5 mN/m
287.4 K, x1 = 0.012 | 68.7 mN/m
287.9 K, x1 = 0.012 | 68.6 mN/m
288.4 K, x1 = 0.06 | 63.4 mN/m
288.6 K, x1 = 0.06 | 63.6 mN/m
288.8 K, x1 = 0.06 | 63.1 mN/m
289.1 K, x1 = 0.06 | 63.2 mN/m
292.8 K, x1 = 0.012 | 68 mN/m and 68.2 mN/m
292.8 K, x1 = 0.06 | 62.8 mN/m
292.9 K, x1 = 0.06 | 62.6 mN/m
293.4 K, x1 = 0.06 | 62.9 mN/m
296.2 K, x1 = 0.06 | 62.1 mN/m
297 K, x1 = 0.012 | 67.5 mN/m
297.1 K, x1 = 0.06 | 62.4 mN/m
297.2 K, x1 = 0.012 | 67.7 mN/m
297.5 K, x1 = 0.012 | 67.6 mN/m
297.7 K, x1 = 0.06 | 62.3 mN/m
298 K, x1 = 0.008 | 68 mN/m
298 K, x1 = 0.0116 | 67.6 mN/m
298 K, x1 = 0.017 | 65.9 mN/m
298 K, x1 = 0.0267 | 64.1 mN/m
298 K, x1 = 0.0374 | 61.4 mN/m
298 K, x1 = 0.0376 | 61.4 mN/m
298 K, x1 = 0.0489 | 62.2 mN/m
298 K, x1 = 0.0579 | 61.2 mN/m
298 K, x1 = 0.06 | 62.3 mN/m
298 K, x1 = 0.0627 | 60.4 mN/m
298 K, x1 = 0.0764 | 58.8 mN/m
298 K, x1 = 0.085 | 60.3 mN/m
298 K, x1 = 0.0932 | 59.7 mN/m
298 K, x1 = 0.1083 | 59.5 mN/m
300.9 K, x1 = 0.06 | 61.4 mN/m
301.2 K, x1 = 0.06 | 61.5 mN/m
301.6 K, x1 = 0.06 | 61.8 mN/m
302 K, x1 = 0.06 | 61.8 mN/m
302.3 K, x1 = 0.012 | 66.9 mN/m
302.7 K, x1 = 0.012 | 66.8 mN/m

298 K
Settings | mass density [kg/m3]
x1 = 0.008 | 1016
x1 = 0.017 | 1031
x1 = 0.027 | 1048
x1 = 0.037 | 1063
x1 = 0.049 | 1084
x1 = 0.062 | 1103
x1 = 0.077 | 1121
x1 = 0.094 | 1135

CC(=O)[C@H]1C[C@@H](CC(=O)O)C1(C)C [cis-pinonic acid] + O
Ring tensiometer, x1 = 0.00035
Settings | surface tension liquid-gas [mN/m]
280.7 K | 61.7
282.5 K | 61.6
283.6 K | 61.6
283.8 K | 61.4
284.4 K | 61.3
285.4 K | 61.5
287.5 K | 61.1
288 K | 60.8
288.8 K | 60.8
289.1 K | 60.9
291.9 K | 60.4
292.5 K | 60.7
292.9 K | 60.5
293.9 K | 60.2
296.8 K | 60.1
297.1 K | 60.2
298.1 K | 59.7
301.2 K | 59.4
301.7 K | 59.9
302.1 K | 59.1

298 K
Settings | mass density [kg/m3] | surface tension liquid-gas [mN/m]
x1 = 2e-05 | – | 69.5
x1 = 4e-05 | – | 66.8
x1 = 0.00011 | – | 64.4
x1 = 0.00018 | 995 | 61.4
x1 = 0.00024 | – | 61.2
x1 = 0.00025 | 993 | –
x1 = 0.00033 | 995 | –
x1 = 0.00034 | – | 59
x1 = 0.00041 | 997 | 57.2
x1 = 0.0005 | 996 | 56.3
x1 = 0.00058 | 994 | 55.8
x1 = 0.00065 | – | 56.2
x1 = 0.00066 | 994 | –
x1 = 0.00083 | 997 | 53.9
